From ChEMBL document CHEMBL1201862, “PubChem BioAssay data set” (2004)
Calls of active or inactive are those of the source. For most assays here, no stated cut-off is given here; in the data, actives have a measured AC50 and inactives only a lower limit.

Key:
[1] = target: T1, Sentrin-specific protease 7 (Homo sapiens, UniProt Q9BQF6); assay type: functional;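 further: Luminescence-based dose-response confirmation of ultra-high-throughput screening hits, measuring inhibition of SENP7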
T1 sequence (Q9BQF6 whole entry): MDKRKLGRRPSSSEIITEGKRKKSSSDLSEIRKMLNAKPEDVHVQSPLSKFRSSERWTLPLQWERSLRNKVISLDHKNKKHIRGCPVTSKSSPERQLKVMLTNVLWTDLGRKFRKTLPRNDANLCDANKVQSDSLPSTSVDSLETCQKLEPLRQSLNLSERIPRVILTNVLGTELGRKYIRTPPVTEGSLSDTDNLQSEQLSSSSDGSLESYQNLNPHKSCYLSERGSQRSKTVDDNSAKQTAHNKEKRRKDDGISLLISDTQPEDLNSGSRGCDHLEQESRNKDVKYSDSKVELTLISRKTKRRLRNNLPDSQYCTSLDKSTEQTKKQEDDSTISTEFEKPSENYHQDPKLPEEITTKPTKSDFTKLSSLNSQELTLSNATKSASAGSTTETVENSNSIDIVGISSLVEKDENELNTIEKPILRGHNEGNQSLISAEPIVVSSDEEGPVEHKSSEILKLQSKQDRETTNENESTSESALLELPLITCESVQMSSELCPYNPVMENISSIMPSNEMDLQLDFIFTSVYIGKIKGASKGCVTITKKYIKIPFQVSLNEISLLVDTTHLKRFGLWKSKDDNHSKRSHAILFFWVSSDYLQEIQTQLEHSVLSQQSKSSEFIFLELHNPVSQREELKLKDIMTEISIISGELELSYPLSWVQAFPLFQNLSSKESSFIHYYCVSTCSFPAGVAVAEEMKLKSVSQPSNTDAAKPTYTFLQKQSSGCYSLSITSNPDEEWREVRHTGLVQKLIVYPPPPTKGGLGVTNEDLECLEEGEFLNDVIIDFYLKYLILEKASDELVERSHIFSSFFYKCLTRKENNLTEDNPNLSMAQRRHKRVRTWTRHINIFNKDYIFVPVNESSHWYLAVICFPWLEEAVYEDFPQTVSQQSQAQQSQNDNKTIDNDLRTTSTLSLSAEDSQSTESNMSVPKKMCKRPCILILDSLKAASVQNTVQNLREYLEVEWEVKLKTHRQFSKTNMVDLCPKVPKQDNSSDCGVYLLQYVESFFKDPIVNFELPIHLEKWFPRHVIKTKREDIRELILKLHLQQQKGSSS

INS1 = experiment: beta cell apoptosis inhibitors, cytokine rescue, dose response, luminescence, retest (AID 449756); assay type: functional, cell-based; details: Rattus norvegicus, INS1;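 further: cell death triggered by IL-1 beta plus TNF-alpha plus IFN-gamma mixture; protective hits raise ATP signal compared with cytokine alone wells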
[2] = target: T2, Replicative DNA helicase DnaB (Mycobacterium tuberculosis, UniProt P9WMR3); experiment: DnaB intein splicing inhibitors, dose response, biochemical, cell-free fluorescence (AID 449749); assay type: functional
T2 sequence (P9WMR3 whole entry): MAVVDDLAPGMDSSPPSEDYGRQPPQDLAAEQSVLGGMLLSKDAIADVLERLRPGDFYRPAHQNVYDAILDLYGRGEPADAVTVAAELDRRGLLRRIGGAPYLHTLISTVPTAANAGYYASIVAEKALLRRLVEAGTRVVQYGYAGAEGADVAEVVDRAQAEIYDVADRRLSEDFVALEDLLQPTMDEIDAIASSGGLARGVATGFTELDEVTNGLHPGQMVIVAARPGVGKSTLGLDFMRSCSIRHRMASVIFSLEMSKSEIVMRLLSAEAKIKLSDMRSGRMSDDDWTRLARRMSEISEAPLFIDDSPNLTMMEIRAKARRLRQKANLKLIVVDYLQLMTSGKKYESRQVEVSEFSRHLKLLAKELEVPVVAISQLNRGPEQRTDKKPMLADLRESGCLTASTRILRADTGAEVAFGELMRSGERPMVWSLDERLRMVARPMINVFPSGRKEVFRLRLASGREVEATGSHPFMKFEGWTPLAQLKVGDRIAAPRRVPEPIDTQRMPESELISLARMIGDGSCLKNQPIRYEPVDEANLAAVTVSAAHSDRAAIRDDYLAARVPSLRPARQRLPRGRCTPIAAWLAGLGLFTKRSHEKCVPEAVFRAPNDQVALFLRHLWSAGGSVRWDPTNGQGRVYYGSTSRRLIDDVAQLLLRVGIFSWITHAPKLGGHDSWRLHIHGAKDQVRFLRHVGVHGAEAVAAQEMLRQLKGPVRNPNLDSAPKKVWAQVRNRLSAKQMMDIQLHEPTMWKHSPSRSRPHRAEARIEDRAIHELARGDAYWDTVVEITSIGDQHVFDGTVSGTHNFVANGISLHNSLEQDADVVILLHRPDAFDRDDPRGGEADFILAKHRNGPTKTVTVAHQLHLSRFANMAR

COc1ccc(Nc2ccc3c(c2)=NC2(CCCCC2)[N+]=3[O-])cc1
active: IC50 [1] 9.21 µM | AC50 (INS1) 1.67 µM | AC50 [2] 9.3 µM
